Measured values: patent US20100010096A1, “Methadone chiral isolate as an improved pharmaceutical” (priority 2006, published 2010)

Biological target: T1, IKr channel (Homo sapiens, UniProt Q12809)
T1 construct: expressed in transfected cells; host or cells: Xenopus oocytes (cRNA injection)
Assay: IKr inhibition in xenopus oocytes overexpressing the IKr channel, two electrode voltage clamp
Format: cell-based
Settings: methadone racemate 0.01 to 3 mM, FIG. 3

T1 sequence (Q12809 whole entry): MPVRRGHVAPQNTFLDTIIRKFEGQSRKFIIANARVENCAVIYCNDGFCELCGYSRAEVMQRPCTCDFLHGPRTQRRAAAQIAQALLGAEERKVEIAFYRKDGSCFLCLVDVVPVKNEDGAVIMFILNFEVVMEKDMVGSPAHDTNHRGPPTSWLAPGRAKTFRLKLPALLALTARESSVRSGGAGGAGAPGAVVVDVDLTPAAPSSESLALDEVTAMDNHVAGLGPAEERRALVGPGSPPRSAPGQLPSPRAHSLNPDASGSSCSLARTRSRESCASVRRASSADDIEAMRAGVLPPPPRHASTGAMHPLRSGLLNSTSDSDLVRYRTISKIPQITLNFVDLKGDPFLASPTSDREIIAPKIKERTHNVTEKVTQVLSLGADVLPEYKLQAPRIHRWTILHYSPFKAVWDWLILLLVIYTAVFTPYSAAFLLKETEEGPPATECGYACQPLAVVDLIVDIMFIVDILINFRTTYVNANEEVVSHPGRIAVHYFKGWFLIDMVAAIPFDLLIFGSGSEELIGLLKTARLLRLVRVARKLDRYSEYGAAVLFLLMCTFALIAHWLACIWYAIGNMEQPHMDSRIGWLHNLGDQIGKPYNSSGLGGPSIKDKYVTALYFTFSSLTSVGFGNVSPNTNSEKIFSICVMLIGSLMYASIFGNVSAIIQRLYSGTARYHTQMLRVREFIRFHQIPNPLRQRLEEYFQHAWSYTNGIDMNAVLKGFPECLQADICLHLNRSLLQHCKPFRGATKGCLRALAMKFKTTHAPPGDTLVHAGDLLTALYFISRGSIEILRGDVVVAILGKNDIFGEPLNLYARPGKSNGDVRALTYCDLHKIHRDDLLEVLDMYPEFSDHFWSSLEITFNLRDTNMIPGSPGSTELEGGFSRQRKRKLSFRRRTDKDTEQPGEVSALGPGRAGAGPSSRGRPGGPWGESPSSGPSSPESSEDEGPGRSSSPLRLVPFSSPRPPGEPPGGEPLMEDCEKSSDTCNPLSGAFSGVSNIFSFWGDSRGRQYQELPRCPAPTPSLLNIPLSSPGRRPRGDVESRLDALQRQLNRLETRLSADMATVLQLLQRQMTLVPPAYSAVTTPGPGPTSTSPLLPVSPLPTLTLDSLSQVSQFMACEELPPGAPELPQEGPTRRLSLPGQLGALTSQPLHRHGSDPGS

SMILES: CCC(=O)C(CC(C)N(C)C)(c1ccccc1)c1ccccc1 (racemic) [methadone]
- inhibition of the IKr current: dose related inhibition of the IKr current
